Consider three compounds from PMC10377586 (Biomolecules, 2023).

The target in one data set is T1, rat A2A (rA2A) ARs (Rattus norvegicus, UniProt P30543).
T1 construct: rat brain striatal membrane preparations for A2A AR assays; tissue Pel Freez; host or cells: rat brain striatum membranes
Description: Radioligand binding [3H]MSX-2, rat brain striatal membranes. The settings on record: read-out: rA2A [3H]MSX-2 % inhibition ± SEM at 10 µM.

Data set [1] addresses human dopamine D2L receptors (Homo sapiens, UniProt P14416). Kind of data set: cAMP accumulation assay in forskolin-stimulated HEK293 cells expressing hD2R. The data set is classed as cell-based.
Description: Briefly, HEK293 cells stably expressing human D2LR were incubated (30 min, room temperature) with forskolin (1 μM) and evaluated compounds in triplicates (7 appropriate concentrations in a range spanning over 6 log units) in presence of phosphodiesterase inhibitor (RO-201724, 100 μM). Subsequently, intracellular cAMP accumulation was measured with homogenous TR-FRET immunoassay, using LANCE Ultra cAMP kit (PerkinElmer) and following manufacturer’s instructions. TR-FRET signal, inversely proportional to cAMP concentration in sample, was measured using Infinite M1000 Pro microplate reader (Tecan, Männedorf, Switzerland). Sigmoidal dose–response curve fitting was performed, using GraphPad Prism™ software (version 5.01, San Diego, CA, USA).
The test system of the next data set is SH-SY5Y cells. Description: Intrinsic neurotoxicity, LDH release from SH-SY5Y cells. The format is cell-based. The following applies: 50 µM. The method, then:
For neuroprotection studies, a cellular model of neuroblastoma SH-SY5Y cells exposed to hydrogen peroxide was applied. Lactate dehydrogenase (LDH) release was used as a measure of cell death. First, the compounds (11a, 11c, 12, 13, 20a, 21, and 22) were tested for their possible intrinsic neurotoxicity to the SH-SY5Y cell line (see Supplementary Figure S1). […] All other compounds were tested for cytoprotective effects against H2O2-induced toxicity in SH-SY5Y cells.
Neuroblastoma SH-SY5Y cells were seeded at the density of 20,000 cells per well to 96-well plates one day before the experiment. Twelve hours prior to start of the assay, cell culture medium was replaced with the fresh portion of reduced serum (1%) medium. Tested compounds were added to the cells at the final concentration of 10 or 50 µM in 1% DMSO. In the neuroprotection studies, hydrogen peroxide, at a final concertation of 300 µM, was pipetted to the assay plate 1 h after tested compounds addition. Cell death, represented by the release of LDH through the perforated cell membrane, was measured following 14 h incubation of cells with the compounds and hydrogen peroxide. LDH levels in cell culture medium were determined using fluorometric CytoTox-ONE Homogeneous Membrane Integrity Assay (Promega Corporation, Madison, WI, USA), according to manufacturer’s instructions.
Supplementary Figure 1. […]
(LDH leaks from cells whose membrane has failed.)

Sequence of human dopamine D2L receptors (P14416 whole entry): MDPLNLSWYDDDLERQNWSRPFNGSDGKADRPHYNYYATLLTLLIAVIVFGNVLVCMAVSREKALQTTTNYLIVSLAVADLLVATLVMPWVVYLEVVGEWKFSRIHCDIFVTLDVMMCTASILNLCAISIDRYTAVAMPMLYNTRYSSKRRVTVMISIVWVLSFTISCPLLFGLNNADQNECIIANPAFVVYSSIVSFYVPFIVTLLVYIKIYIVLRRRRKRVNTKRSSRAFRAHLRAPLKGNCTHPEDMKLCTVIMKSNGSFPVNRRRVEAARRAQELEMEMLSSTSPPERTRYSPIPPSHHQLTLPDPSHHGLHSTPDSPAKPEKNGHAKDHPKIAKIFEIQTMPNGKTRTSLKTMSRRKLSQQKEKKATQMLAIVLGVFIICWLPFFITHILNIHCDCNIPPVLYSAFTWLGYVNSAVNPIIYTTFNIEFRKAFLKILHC
T1 sequence (P30543 whole entry): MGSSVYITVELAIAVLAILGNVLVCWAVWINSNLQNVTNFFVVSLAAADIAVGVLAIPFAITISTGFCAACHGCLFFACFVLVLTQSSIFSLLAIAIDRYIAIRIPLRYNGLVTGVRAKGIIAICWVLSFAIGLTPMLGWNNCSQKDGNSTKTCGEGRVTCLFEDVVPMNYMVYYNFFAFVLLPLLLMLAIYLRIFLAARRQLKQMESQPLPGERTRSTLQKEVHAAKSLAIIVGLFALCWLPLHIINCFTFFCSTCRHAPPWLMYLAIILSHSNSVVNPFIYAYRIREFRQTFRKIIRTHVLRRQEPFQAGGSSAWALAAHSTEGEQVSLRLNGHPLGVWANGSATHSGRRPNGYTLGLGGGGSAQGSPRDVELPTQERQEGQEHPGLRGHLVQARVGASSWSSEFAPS

`CCCCCCn1c(NCCc2ccc(O)c(O)c2)nc2c1c(=O)n(C)c(=O)n2C` [Compound 11i, 8-((3,4-Dihydroxyphenethyl)amino)-7-hexyl-1,3-dimethyl-3,7-dihydro-1H-purine-2,6-dione]: on rat A2A (rA2A) ARs, the inhibition (in general, how much of the control response was suppressed) at 10 µM was determined as 14%.

In the case of `Cn1c(=O)c2c(nc(NCCc3ccc(O)c(O)c3)n2CCc2ccccc2)n(C)c1=O` [Compound 11k, 8-((3,4-Dihydroxyphenethyl)amino)-1,3-dimethyl-7-phenethyl-3,7-dihydro-1H-purine-2,6-dione], the inhibition at 10 µM at rat A2A (rA2A) ARs was 44%.

In the case of `CCCCn1c(=O)c2c(nc(NCCc3ccc(O)c(O)c3)n2CCC)n(CCCC)c1=O` [Compound 13, 1,3-Dibutyl-8-((3,4-dihydroxyphenethyl)amino)-7-propyl-3,7-dihydro-1H-purine-2,6-dione], in data set [1] (forskolin-stimulated HEK293 cells, human D2L, read-out: EC50, functional cAMP assay), the half-maximal effective concentration (EC50) (in general, the concentration at which the effect is half-maximal) was determined as 11.3 µM. Besides, in data set [1] (functional cAMP assay), the “intrinsic activity at D2R” value is listed as “agonistic properties”. Also, the “intrinsic neurotoxicity to SH-SY5Y cell line (LDH release)” value with SH-SY5Y cells is on record as “significant cytotoxicity”.
